Experimental data: patent US20060205753A1, “Use of methylnaltrexone and related compounds to treat post-operative gastrointestinal dysfunction” (priority 2005, published 2006)
“Also recorded” adds a separate entry of the source. Like-named read-outs stand apart in the source and are kept apart here.

What was measured:
[1] = system: human segmental colectomy patients; assay: Phase 2 randomized, double-blind, placebo-controlled study of IV MNTX after segmental colectomy; assay type: in vivo
Description: The following non-limiting examples relate to a phase 2 human study using MNTX to reduce the duration of gastrointestinal dysfunction following segmental colectomy. The primary objective of this study was to assess the activity of parenterally administered MNTX every six hours compared with placebo in shortening the duration of or preventing post-operative ileus in patients who have undergone segmental colectomies. Evidence of activity of MNTX was based on at least one or more of the following: the time to tolerance of liquids, time to first bowel movement, time to tolerance of solid foods, time to the combination of first solid meal and bowel movement, time to first micturition post foley catheter removal, and time to hospital discharge. The use of daily anti-emetic and opioid medication was also assessed.
A total of 65 patients at eight surgical centers participated in the phase 2 randomized, double-blind, placebo-controlled study. Subjects underwent segmental colectomies primarily due to cancer or diverticular disease. Shortly after surgery (90 minutes post surgery), study medication (0.3 mg/kg MNTX or placebo) was administered intravenously at six-hour intervals for a maximum of seven days.
The study was a double-blind, randomized parallel group study designed to evaluate the safety and activity of IV (intravenous) MNTX in the treatment of patients who are undergoing segmental colectomies via laparotomy and the duration of their post-operative ileus. Patients were randomized to either placebo (saline) or a fixed dose of IV MNTX of 0.30 mg/kg patient body weight in 50 cc of 0.9% normal saline hung as an IV piggyback (IVPB) to the main line and infused over twenty (20) minutes every six (6) hours until twenty-four (24) hours after the patient could tolerate solid foods, until discharged from the hospital, or for a maximum of seven (7) days. These time points for study drug discontinuation were selected in order to analyze the secondary efficacy endpoints of IV MNTX as well as the primary endpoints.
Day of Surgery. Within twenty-four (24) hours of surgery, patients were randomly assigned to either the MNTX 0.30 mg/kg or placebo (saline) dose group.
Prior to the first study drug administration the patient's vital signs were monitored. Patients were asked to assess their level of nausea, abdominal cramping, pain, and itching based on a verbal numerical scale. Within 90 minutes from the end of the surgical procedure, defined as the surgical end time recorded on the operating room (OR) sheet (regardless of whether a patient was in the PACU or not) the first dose of study drug was administered intravenously through an already existing IV line, hung as an IV piggyback (IVPB) to the main line, over 20 minutes. If the IV line was being used for other medications, i.e. antibiotics, electrolyte supplements, etc., the line was flushed with 20 cc of the main IV fluid prior to the hanging of study product. The patient's vital signs were monitored at the end of the study medication infusion, 20 min, 60 min, 120 min and 180 minutes after this first IV study drug administration. Patients were asked to assess their level of nausea, abdominal cramping, pain, and itching based on a verbal numerical scale and whether or not they had vomited 60 minutes after the end of the first study drug administration.
Inability to tolerate clear liquids was defined as nausea and/or vomiting within the first 60 minutes of the challenge.
The patient's diet was advanced to full liquids (≧500 cc of liquid) at the meal following the patient's tolerance of their first 30 cc of water by mouth. The patient's diet was then advanced to solid foods at the meal following their tolerance of full liquids. Tolerance of full liquids was defined as no clinically significant nausea and no vomiting within the first hour of the conclusion of the full liquids. […]

rat = details: cited from earlier work
mu opioid receptor = mu opioid receptor (Homo sapiens, UniProt P35372); details: Alvimopan compared with methylnaltrexone; as characterized by Adolor Corporation; cited from earlier work
[2] = white crystalline powder as provided; cited from earlier work
[3] = system: human patients, abdominal surgery; details: 6 mg and 12 mg oral doses, started at least two hours prior to abdominal surgery; cited from earlier work
[4] = segmental colectomy patients, MNTX 0.30 mg/kg IV every 6 hours, on average
[5] = segmental colectomy patients, on average
[6] = sigmoidectomy patients, MNTX IV after surgery, on average

mu opioid receptor, sequence (P35372 whole entry, species assumed): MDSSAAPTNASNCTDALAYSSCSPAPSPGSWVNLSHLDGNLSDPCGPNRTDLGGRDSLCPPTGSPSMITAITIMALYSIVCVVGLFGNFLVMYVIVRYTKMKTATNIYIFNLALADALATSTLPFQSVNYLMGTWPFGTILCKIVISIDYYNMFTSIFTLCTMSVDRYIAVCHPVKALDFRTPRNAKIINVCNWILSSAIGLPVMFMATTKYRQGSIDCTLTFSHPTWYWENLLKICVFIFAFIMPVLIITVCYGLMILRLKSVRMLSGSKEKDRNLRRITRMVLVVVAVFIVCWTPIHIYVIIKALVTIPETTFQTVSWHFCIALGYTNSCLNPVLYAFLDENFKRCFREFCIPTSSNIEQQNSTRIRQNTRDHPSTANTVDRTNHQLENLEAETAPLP

SMILES | Time to first bowel movement ([1]; segmental colectomy patients, MNTX 0.30 mg/kg IV every 6 hours started after surgery, on average) | Time to actual discharge [1, 4] | Time to discharge eligibility [1, 4] | Time to first flatus [1, 4] | Time to first full liquid diet [1, 4] | Time to first solid meal [1, 4] | Time to first solid meal and bowel movement (solids in-solids out) [1, 4] | Time to first use of an anti-emetic [1, 4] | Time to first anti-emetic use, delayed relative to absence of drug [1, 5] | Time to first flatus, accelerated relative to absence of drug [1, 5] | Time to first solid meal ([1]; sigmoidectomy patients, MNTX IV after surgery) | Time to actual discharge [1, 6] [h] | Time to discharge eligibility [1, 6] | Time to first bowel movement [1, 6] | Time to first flatus [1, 6] | Recovery of gastrointestinal transit (rat; MNTX intravenously 90 minutes before surgery) | Recovery of gastrointestinal transit (rat; MNTX intravenously closer to surgery (60 minutes or 45 minutes before surgery)) | Affinity for mu opioid receptor, relative (mu opioid receptor) | Solubility in water [2] | Outcome of phase III human studies on post-operative gastrointestinal dysfunction end-points [3]
C[N+]1(CC2CC2)CC[C@]23c4c5ccc(O)c4O[C@H]2C(=O)CC[C@@]3(O)[C@H]1C5 (stereo partly drawn) [MNTX, N-cyclopropylmethylnoroxy-morphine-methobromide] | about 97 hours | about 140 hours | about 119 hours | about 88 hours | about 70 hours | about 100 hours | about 124 hours | about 26 hours | about 10 hours | about 8 hours | about 93 hours | ≤ 125 | about 105 hours | about 94 hours | about 85 hours | signs of partial recovery of gastrointestinal transit | not | lower mu opioid receptor affinity than Alvimopan | freely soluble in water | –
C[C@H]1CN(C[C@H](Cc2ccccc2)C(=O)NCC(=O)O)CC[C@@]1(C)c1cccc(O)c1 [Alvimopan] | – | – | – | – | – | – | – | – | – | – | – | – | – | – | – | – | – | greater affinity and selectivity than methylnaltrexone | – | inconsistent results that lacked statistical significance for many of the end-points; also recorded: inconsistent and lack statistical significance with respect to many of the end-points
